This note sets out measurements from patent US9242929B2, “Compounds as diacylglycerol acyltransferase inhibitors” (GlaxoSmithKline Intellectual Property (No.2) Limited, priority 2011, dated 2016).

In the assay the target is T1, Human DGAT1 (Homo sapiens, UniProt O75907).
T1 construct: made in house; host or cells: Sf9 insect cells (baculovirus), microsomes
T1 sequence (O75907 1-488): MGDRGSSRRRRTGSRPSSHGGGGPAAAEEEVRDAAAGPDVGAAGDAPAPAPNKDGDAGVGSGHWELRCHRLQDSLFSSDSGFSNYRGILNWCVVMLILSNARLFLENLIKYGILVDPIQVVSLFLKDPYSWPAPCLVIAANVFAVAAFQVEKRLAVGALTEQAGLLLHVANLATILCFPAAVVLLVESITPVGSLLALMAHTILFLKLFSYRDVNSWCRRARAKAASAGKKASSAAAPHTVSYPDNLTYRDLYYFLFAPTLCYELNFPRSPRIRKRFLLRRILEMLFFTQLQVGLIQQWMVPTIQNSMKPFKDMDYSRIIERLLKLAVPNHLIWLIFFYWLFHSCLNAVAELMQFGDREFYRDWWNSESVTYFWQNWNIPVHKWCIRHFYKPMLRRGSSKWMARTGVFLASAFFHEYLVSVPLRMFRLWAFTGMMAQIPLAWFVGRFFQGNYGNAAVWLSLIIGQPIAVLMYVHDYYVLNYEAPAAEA
The assay can be described thus: human DGAT1 fluorescence (CPM) assay, inhibition of CoA product formation. The class given is biochemical. The following applies: human DGAT1 fluorescene (CPM) assay; microsomes from Sf9 insect cells; read-out: hDGAT IC50. How it is done:
Human DGAT1 was expressed in Sf9 insect cells using a baculovirus expression system. Microsomes were prepared and used as enzyme for in vitro inhibition testing in either of two formats measuring production of coenzyme A or tridecanoylglycerol product, respectively. All steps were performed at 21-23° C. All data for DGAT1 inhibition by test compounds were collected under conditions where product formation was linear with reaction time.
An equal volume (10 uL) of 3× enzyme in buffer was added and the components incubated for 30 minutes pre-reaction incubation to allow enzyme and test compounds to attain binding equilibrium. […] Some assays were performed with inclusion of didecanoylglycerol in the pre-reaction incubation of test compound and enzyme. DGAT reactions (30 uL) were initiated upon addition of 10 uL of 3× substrate solution. Final reaction conditions consisted of 20 mM HEPES pH 7.5, 2 mM MgCl2, 1 mM CHAPS, 50 uM didecanoylglycerol, 3 uM decanoyl-CoA, 1 ug/mL microsomal protein, and 1% DMSO. Following a 60 minute reaction incubation, reactions were stopped and CoA product derivatized with 30 uL of buffer containing 10 uM {4-[4-(4-amino-7,7-dimethyl-7H-pyrimido[4,5-b][1,4]oxazin-6-yl)phenyl]cyclohexyl}acetic acid and 50 uM 7-diethylamino-3-(4′-maleimidylphenyl)-4-methylcoumarin (CPM). […] IC50s were fitted using GraphPad Prism to a sigmoidal dose response.
For `CCC1(CC(=O)O)Cc2cc(-c3ccc(NC(=O)Nc4cccc(C(F)(F)F)c4)cc3)ccc2C1=O` (stereo not drawn) [Example 42, 2-{2-ethyl-1-oxo-5-[4-({[3-(trifluoromethyl)phenyl]carbamoyl}amino)phenyl]-2,3-dihydro-1H-inden-2-yl}acetic acid], the IC50 turned out to be 60 nM.
With `CCC1(CC(=O)O)CCc2cc(-c3cnc(NC(=O)Nc4ccccc4)cn3)ccc2C1=O` (stereo not drawn) [Example 154] the figure was 47.8 nM.
With `CC1(CC(=O)O)CCc2cc(-c3ccc(NC(=O)Nc4cccc(C(F)(F)F)c4)cn3)ccc2C1=O` (stereo not drawn) [Example 109] the figure was 14.2 nM; with `O=C(O)CC1(CC(F)(F)F)CCc2cc(-c3cnc(NC(=O)NC4CCC4)cn3)ccc2C1=O` (stereo not drawn) [Example 230], 27.5 nM; with `O=C(O)CC1CCc2cc(-c3ccc(NC(=O)Nc4cccc(C(F)(F)F)c4)cc3)ccc2C1O` (stereo not drawn) [Example 68, 2-{1-hydroxy-6-[4-({[3-(trifluoromethyl)phenyl]carbamoyl}amino)phenyl]-1,2,3,4-tetrahydronaphthalen-2-yl}acetic acid], 503 nM.
As for `O=C(O)CC1(O)CCc2cc(-c3ccc(NC(=O)Nc4cccc(C(F)(F)F)c4)cc3)ccc2C1` (stereo not drawn) [Example 40, 2-{2-hydroxy-6-[4-({[3-(trifluoromethyl)phenyl]carbamoyl}amino)phenyl]-1,2,3,4-tetrahydronaphthalen-2-yl}acetic acid], the IC50 worked out at 357 nM.
With `COC1(CC(=O)O)CCc2cc(-c3ccc(NC(=O)Nc4cccc(Cl)c4)cc3)ccc2C1=O` (stereo not drawn) [Example 229] the figure was 5.2 nM; with `CCC(CC)NC(=O)Nc1cnc(-c2ccc3c(c2)CCC(CC(=O)O)(CC(F)(F)F)C3=O)cn1` (stereo not drawn) [Example 219], 5960 nM; with `COC1(CC(=O)O)CCc2cc(-c3ccc(NC(=O)Nc4cccc(C(F)(F)F)c4)cc3)ccc2C1=O` (single isomer, unassigned) [Example 228], 6.9 nM.
For the molecule `O=C(O)CC1(CC(F)(F)F)CCc2cc(-c3ccc(NC(=O)Nc4cccc(Cl)c4)cc3)ccc2C1=O` (stereo not drawn) [Example 205], the IC50 amounted to 3.5 nM.
With `CCC1(CC(=O)O)CCc2cc(-c3ccc(NC(=O)Nc4cccc(Cl)c4)c(F)c3)ccc2C1=O` (stereo not drawn) [Example 144] the figure was 5.8 nM; with `CCC1(CC(=O)O)CCc2cc(-c3ccc(NC(=O)Nc4ccccc4)cc3Cl)ccc2C1=O` (stereo not drawn) [Example 140], 31.8 nM; with `CC[C@@]1(CC(=O)O)CCc2cc(-c3ccc(NC(=O)Nc4cccc(Cl)c4)cn3)ccc2C1=O` [Example 164], 4.5 nM.
With `O=C(O)CC1(CO)CCc2cc(-c3ccc(NC(=O)Nc4cccc(Cl)c4)c(F)c3)ccc2C1=O` (stereo not drawn) [Example 198, 2-(6-(4-(3-(3-Chlorophenyl)ureido)-3-fluorophenyl)-2-(hydroxymethyl)-1-oxo-1,2,3,4-tetrahydronaphthalen-2-yl)acetic acid] the figure was 55 nM; with `COC1(CC(=O)O)CCc2cc(-c3ccc(NC(=O)Nc4cccc(Cl)c4)cc3)ccc2C1=O` (stereo not drawn) [Example 192], 10.6 nM.
With `O=C(O)CC1(CC(F)(F)F)CCc2cc(-c3cnc(NC(=O)NC4CCCCC4)cn3)ccc2C1=O` (single isomer, unassigned) [Example 216, 2-(6-(5-(3-cyclohexylureido)pyrazin-2-yl)-1-oxo-2-(2,2,2-trifluoroethyl)-1,2,3,4-tetrahydronaphthalen-2-yl)acetic acid] the figure was 2.7 nM; with `CCC1(CC(=O)O)CCc2cc(-c3ccc(NC(=O)Nc4cccc(Cl)c4)cc3Cl)ccc2C1=O` (stereo not drawn) [Example 139], 10.8 nM.
Consider `CC[C@@]1(CC(=O)O)CCc2cc(-c3ccc(NC(=O)Nc4cccc(C(F)(F)F)c4)cc3)ccc2[C@@H]1O` (relative stereo) [Example 173, rel-2-[(1R,2S)-2-ethyl-1-hydroxy-6-[4-({[3-(trifluoromethyl)phenyl]carbamoyl}amino)phenyl]-1,2,3,4-tetrahydronaphthalen-2-yl]acetic acid], for which the IC50 came to 10.8 nM.
With `CC1(CC(=O)O)CCc2cc(-c3ccc(NC(=O)Nc4cccc(Cl)c4)cc3Cl)ccc2C1=O` (single isomer, unassigned) [Example 212, 2-(6-(2-chloro-4-(3-(3-chlorophenyl)ureido)phenyl)-2-methyl-1-oxo-1,2,3,4-tetrahydronaphthalen-2-yl)acetic acid] the figure was 32.8 nM.
With `CCC1(CC(=O)O)CCc2cc(-c3ccc(NC(=O)Nc4cccc(Cl)c4)cc3Cl)ccc2C1=O` (single isomer, unassigned) [Example 213, 2-(6-(2-Chloro-4-(3-(3-chlorophenyl)ureido)phenyl)-2-ethyl-1-oxo-1,2,3,4-tetrahydronaphthalen-2-yl)acetic acid] the figure was 5.9 nM.
`O=C(O)CC1CCc2cc(-c3ccc(NC(=O)Nc4cccc(C(F)(F)F)c4)cc3)ccc2C1=O` (stereo not drawn) [Example 47, 2-{1-oxo-6-[4-({[3-(trifluoromethyl)phenyl]carbamoyl}amino)phenyl]-1,2,3,4-tetrahydronaphthalen-2-yl}acetic acid]: the half-maximal inhibitory concentration (IC50) was 181 nM.
For `O=C(O)CC1(O)CCc2cc(-c3ccc(NC(=O)Nc4cccc(C(F)(F)F)c4)cc3)ccc2C1=O` (stereo not drawn) [Example 185, 2-{2-hydroxy-1-oxo-6-[4-({[3-(trifluoromethyl)phenyl]carbamoyl}amino)phenyl]-1,2,3,4-tetrahydronaphthalen-2-yl}acetic acid], the IC50 is 32 nM.
With `O=C(O)CC1(CC(F)(F)F)CCc2cc(-c3ccc(NC(=O)NC4CCCCC4)cc3)ccc2C1=O` (stereo not drawn) [Example 226] the figure was 6.1 nM; with `COCC1(CC(=O)O)CCc2cc(-c3ccc(NC(=O)Nc4cccc(C(F)(F)F)c4)cc3)ccc2C1=O` (stereo not drawn) [Example 197, 2-[2-(methoxymethyl)-1-oxo-6-[4-({[3-(trifluoromethyl)phenyl]carbamoyl}amino)phenyl]-1,2,3,4-tetrahydronaphthalen-2-yl]acetic acid], 2.3 nM; with `O=C(O)CC1(CC(F)(F)F)CCc2cc(-c3cnc(NC(=O)Nc4ccc(F)c(F)c4)cn3)ccc2C1=O` (stereo not drawn) [Example 215, 2-(6-(5-(3-(3,4-Difluorophenyl)ureido)pyrazin-2-yl)-1-oxo-2-(2,2,2-trifluoroethyl)-1,2,3,4-tetrahydronaphthalen-2-yl)acetic acid], 1.8 nM.
With `O=C(O)CCC1CCc2cc(-c3ccc(NC(=O)Nc4cccc(C(F)(F)F)c4)cc3)ccc2C1=O` (stereo not drawn) [Example 69, 3-{1-oxo-6-[4-({[3-(trifluoromethyl)phenyl]carbamoyl}amino)phenyl]-1,2,3,4-tetrahydronaphthalen-2-yl}propanoic acid] the figure was 114 nM; with `O=C(O)CN1CCc2cc(-c3ccc(NC(=O)Nc4cccc(C(F)(F)F)c4)cc3)ccc2C1=O` [Example 1, 2-{1-oxo-6-[4-({[3-(trifluoromethyl)phenyl]carbamoyl}amino)phenyl]-1,2,3,4-tetrahydroisoquinolin-2-yl}acetic acid], 1880 nM.
With `CCC1(CC(=O)O)CCc2cc(-c3ccc(NC(=O)Nc4cccc(C(F)(F)F)c4)c(F)c3)ccc2C1=O` (stereo not drawn) [Example 143] the figure was 11.2 nM; with `CCc1ccc(NC(=O)Nc2ccc(-c3ccc4c(c3)CCC(CC(=O)O)(CC(F)(F)F)C4=O)cc2)cc1` (stereo not drawn) [Example 225], 1.2 nM.
With `O=C(O)CC1(F)CCc2cc(-c3ccc(NC(=O)Nc4cccc(C(F)(F)F)c4)cc3)ccc2C1=O` (stereo not drawn) [Example 182, 2-{2-fluoro-1-oxo-6-[4-({[3-(trifluoromethyl)phenyl]carbamoyl}amino)phenyl]-1,2,3,4-tetrahydronaphthalen-2-yl}acetic acid], the IC50 stood at 48 nM.
With `O=C(O)CC1(CC(F)(F)F)CCc2cc(-c3cnc(NC(=O)Nc4cccc(Cl)c4)cn3)ccc2C1=O` (stereo not drawn) [Example 223] the figure was 0.7 nM; with `O=C(O)CC1(CC(F)(F)F)CCc2cc(-c3ccc(NC(=O)Nc4cc(Cl)cc(Cl)c4)cc3)ccc2C1=O` (stereo not drawn) [Example 224], 2.8 nM.
With `CC1(CC(=O)O)CCc2cc(-c3ccc(NC(=O)Nc4cccc(Cl)c4)c(F)c3)ccc2C1=O` (stereo not drawn) [Example 90] the figure was 12 nM; with `O=C(O)CC1CCc2cc(-c3ccc(NC(=O)Nc4ccc(F)c(C(F)(F)F)c4)cc3)ccc2C1` (stereo not drawn) [Example 20], 586 nM; with `COC1(CC(=O)O)CCc2cc(-c3ccc(NC(=O)Nc4ccccc4)cc3)ccc2C1=O` (stereo not drawn) [Example 190, 2-(2-methoxy-1-oxo-6-{4-[(phenylcarbamoyl)amino]phenyl}-1,2,3,4-tetrahydronaphthalen-2-yl)acetic acid], 67.6 nM.
With `O=C(O)CC1(CC(F)(F)F)CCc2cc(-c3ccc(NC(=O)Nc4ccccc4)cc3)ccc2C1O` (stereo not drawn) [Example 202] the figure was 6.5 nM.
